Laboratory results reported in PMC8409943, “Study on mechanism of low bioavailability of black tea theaflavins by using Caco-2 cell monolayer” (Drug Delivery, 2021).
Read-outs that look alike come from different tables or passages of the source.

Columns and labels:
[1] = tested on: Caco-2 cells; test: Cytotoxicity study by CCK-8 method; assay type: cell-based, Human; details: 24 h
Experimental: Standard stock solutions (1000 μM) of each theaflavin were prepared in 0.1% dimethyl sulfoxide (DMSO) in deionized water, and diluted with fresh DMEM to 100, 200, 300, 400, and 500 µmol/L respectively. Each inhibitor was prepared as instructions. The cytotoxicity of theaflavins and four inhibitors of multidrug resistant associated proteins to Caco-2 cells was examined by CCK-8 method (Song et al., [2014]). Briefly, Caco-2 cells were inoculated onto 96-well microtiter plates at a density of 1 × 10^4 cells per well. After incubation at 37 °C for 24 h, cells were incubated for another 24 h with different concentrations of theaflavins, followed by adding 10 μL CCK-8 solution and 1 h incubation at 37 °C. The absorbance (OD) value was determined at 450 nm using a microplate reader (ELX-800, Bio-Tek Instruments Inc., Winooski, USA). Four inhibitors were used in this study: Vep, inhibitor of P-gp; CsA, inhibitor and substrate of P-gp; MK-571, inhibitor of MRP1, MRP2 and MRP3; FTC, inhibitor of BCRP (Silbermann et al., [1989]; König et al., [1999]; Renes et al., [1999]; Ali et al., [2017]). The cytotoxicity of Vep, CsA, MK-571 or FTC was also determined by CCK-8 assay. […] To determine the effects of inhibitors on the cytotoxicity of theaflavins, cells were incubated with both different theaflavin monomers (100, 200, 300, 400, and 500 μM) and different inhibitors. IC50, the half inhibitory concentration, was calculated from the cell viability. The cell viability was calculated by the following equation: (1) Cell viability (%)=(ODsample− ODblank)/(ODcontrol− ODblank)×100% where ODsample is the absorbance value of cell + sample + complete medium; ODblank, the absorbance value of complete medium; ODcontrol, the absorbance value of cell + complete medium.

[2] = Transepithelial transport of theaflavins across Caco-2 cell monolayers, with or without efflux transporter inhibitors; assay type: in vitro ADME, Human; details: human; for recovery at 2 h, 200 μM: Caco-2, Caco-2 monolayers, after 2 h incubation; for efflux ratio at 2 h, 200 μM / Papp A→B at 2 h, 200 μM / Papp B→A at 2 h, 200 μM: 2 h incubation
Experimental: (§1) For transport studies, Caco-2 cells were seeded at a density of 3 × 10^5 cells per well in Transwell® inserts (polycarbonate membrane, 24 mm i.d., 0.4 μm pore size, Corning Costar Corp., NY, USA) in 6-well plates (Zhang et al., [2004]). […] The inserts were washed twice with HBSS buffer and equilibrated at 37 °C for 30 min. Standard stock solutions of each theaflavin were diluted to 200 μM with HBSS. For absorptive transport, theaflavins in 1.5 mL HBSS was added into the AP side and 2.6 mL HBSS was added into the BL side of all inserts. For secretory transport, 1.5 mL HBSS and 2.6 mL theaflavins in HBSS were added into AP side and BL side, respectively. Samples were collected from the receiving chamber after 0.5, 1, 2, 3, or 4 h incubation and then were lyophilized at −110 °C in a CoolSafe freeze dryer (LaboGene ApS, Bjarkesvej, Denmark) for HPLC analysis. The recovery rate of theaflavins in the transport was calculated from the above Equation (2).
(§2) Prior to transport inhibition experiment, cells were preincubated for 30 min with 100 μM Vep, 100 μM CsA, 100 μM MK-571, or 10 μM FTC in both sides (Vaidyanathan & Walle, [2001]; Wang et al., [2008]). Then, the absorptive and secretory experiments were performed in the presence of inhibitors as described above. Samples were collected from the receiving chamber after 2 h incubation and then were lyophilized at −110 °C for HPLC analysis.
(§3) The apparent permeability coefficient (Papp, cm/s) was calculated as follows: (3) Papp= dQ/dt×V/(A×C0) where dQ/dt is the variation in concentration on the receiving side over time (μM/s); V, the volume of the solution collected from the receiving chamber (cm^3); A, the area of the membrane (4.67 cm^2); C0, the initial concentration of theaflavins in the donor chamber (μM).
(§4) The efflux ratio was calculated as follows: (4) Efflux ratio= Papp(BL−AP)/Papp(AP−BL) where Papp, apparent permeability coefficient; AP-BL, apical to basolateral transport; BL-AP, basolateral to apical transport.

[3] = tested on: Caco-2 cell monolayers; test: as above; assay type: in vitro ADME, Human
Experimental: as §1, §2, §3, §4

[4] = tested on: MRP1; test: Western blot, protein level of MRP1; assay type: cell-based, Human; details: Caco-2 cells, 200 μM, 2 h, normalized to β-actin, vs control
Experimental: (§5) Cell lysates were prepared with RIPA lysis buffer. […] Cell protein (50 μg) was loaded onto SDS polyacrylamide gel (5% stacking gel; 8% separating gel) and separated by electrophoresis for 1.5 h at 20 mA. Next, the separated proteins were transferred onto the PVDF membrane in ice bath for 1.5 h at 120 mA, followed by blocking the membrane with 5% nonfat milk in Tris-buffered saline containing 0.1% Tween-20 (TBST) for 1 h at room temperature. After blocking, the blots were incubated overnight at 4 °C with the primary antibody of P-gp, MRP1, MRP2, MRP3, BCRP (1:200) or β-actin (1:40,000), followed by washing with TBST and incubation for 1 h at room temperature with HRP-conjugated goat anti-rabbit (1:3,000). Immunoreactive proteins were visualized by the ECL detection system, band intensity was quantified by Image Lab (Bio-Rad, CA, USA), and the protein contents were normalized to β-actin.

[5] = tested on: BCRP; test: Western blot, protein level of BCRP; assay type: cell-based, Human; details: Caco-2 cells, 200 μM, 2 h, normalized to β-actin, vs control
Experimental: as §5

[6] = tested on: Caco-2 monolayers; test: HPLC-MS/MS identification of metabolites in the absorptive transport of Caco-2 monolayers; assay type: in vitro ADME, Human; details: 200 µM, 2 h; for conjugated metabolites (glucuronidated, sulfated and methylated): AP side or BL side of Caco-2 monolayers; for metabolites identified: absorptive transport, AP side and BL side
Experimental: TF3G, TF3’G and TFDG were dissolved in DMSO (≤0.5%), and then, diluted with HBSS. Caco-2 cells were incubated with 200 µM TF3G, TF3’G and TFDG at 37 °C for 2 h. Samples collected from both AP side and BL side were measured by HPLC with MS detection, and the metabolites were determined in terms of the standard TF, TF3G, TF3’G, TFDG, and gallic acid (Table S2).

[7] = Stability (recovery rate) of theaflavins in HBSS and DMEM in the absence of cells; details: 2 h
Experimental: Standard stock solutions of each theaflavin were diluted with HBSS and DMEM respectively, obtaining final test solutions of 200 μM. The recovery rate of theaflavins in HBSS and in DMEM, in the absence of cells, was analyzed by HPLC after incubation at 37 °C for 0.5, 1, 2, 3, 4, 8, 12, and 24 hours, respectively. The recovery rate was used to measure the stability and calculated as follows: (2) Recovery rate=Ct/C0× 100% where Ct is the final concentration at different incubation time (μM); C0, the initial concentration (μM).
Theaflavins were characterized by high performance liquid chromatography (HPLC, Agilent 1100VL, Agilent Technologies Inc., CA, USA). Briefly, samples were extracted with 70% methanol, centrifuged at 685 × g for 10 min, and filtered through a 0.45 μm membrane (Nylon 66). The separation was performed by an ODS reversed-phase column (4.6 mm i.d.×250 mm, SB-C18, Agilent Technologies Inc., CA, USA) at a flow rate of 0.7 mL/min. Chromatographic conditions were slightly modified according to China National Standard (GB/T 30483-2013, GAQSIQ, P. R. China, 2013). Samples were eluted with a gradient of solvent A (100 mL water with 9 mL acetonitrile and 2 mL acetic acid) and B (100 mL acetonitrile with 17.8 mL water and 2 mL acetic acid) as follows: 0–5 min, 95% A; 5–10 min, 90% A; 10–20 min, 70% A; 20–25 min, 65% A; 25–30 min, 70% A; 30–35 min, 100% A. Theaflavins were detected using an ultraviolet detector at a wavelength of 278 nm.

[8] = Homo sapiens, Ctrl (no inhibitor)
[9] = apical to basolateral, read-out: recovery of theaflavins in absorptive transport
[10] = basolateral to apical, read-out: recovery of theaflavins in secretory transport
[11] = Caco-2, Papp(BL−AP)/Papp(AP−BL), Ctrl (no inhibitor)
[12] = Caco-2, absorptive transport, 200 μM theaflavin in HBSS, Ctrl (no inhibitor)
[13] = Caco-2, secretory transport, 200 μM theaflavin in HBSS, Ctrl (no inhibitor)
[14] = Caco-2, with 10 μM FTC (BCRP inhibitor), + 10 μM FTC (BCRP inhibitor)
[15] = Caco-2, with 10 μM FTC (BCRP inhibitor), absorptive transport, + 10 μM FTC (BCRP inhibitor)
[16] = Caco-2, with 10 μM FTC (BCRP inhibitor), secretory transport, + 10 μM FTC (BCRP inhibitor)
[17] = Caco-2, with 100 μM CsA (P-gp inhibitor and substrate), + 100 μM CsA (P-gp inhibitor and substrate)
[18] = Caco-2, with 100 μM CsA (P-gp inhibitor and substrate), absorptive transport, + 100 μM CsA (P-gp inhibitor and substrate)
[19] = Caco-2, with 100 μM CsA (P-gp inhibitor and substrate), secretory transport, + 100 μM CsA (P-gp inhibitor and substrate)
[20] = Caco-2, with 100 μM Vep (P-gp inhibitor), + 100 μM Vep (P-gp inhibitor)
[21] = Caco-2, with 100 μM Vep (P-gp inhibitor), absorptive transport, + 100 μM Vep (P-gp inhibitor)
[22] = Caco-2, with 100 μM Vep (P-gp inhibitor), secretory transport, + 100 μM Vep (P-gp inhibitor)

SMILES	IC50 ([1]; + CsA) [µM]	IC50 ([1]; + FTC) [µM]	IC50 ([1]; + MK-571) [µM]	IC50 ([1]; + VEP) [µM]	IC50 [1, 8] [µM]	recovery at 2 h, 200 μM [2, 9] [%]	recovery at 2 h, 200 μM [2, 10] [%]	efflux ratio at 2 h, 200 μM [2, 11]	Papp A→B at 2 h, 200 μM [2, 12] [×10⁻⁶ cm/s]	Papp B→A at 2 h, 200 μM [2, 13] [×10⁻⁶ cm/s]	efflux ratio at 2 h, 200 μM [2, 14]	Papp A→B at 2 h, 200 μM [2, 15] [×10⁻⁶ cm/s]	Papp B→A at 2 h, 200 μM [2, 16] [×10⁻⁶ cm/s]	efflux ratio at 2 h, 200 μM [2, 17]	Papp A→B at 2 h, 200 μM [2, 18] [×10⁻⁶ cm/s]	Papp B→A at 2 h, 200 μM [2, 19] [×10⁻⁶ cm/s]	efflux ratio at 2 h, 200 μM [2, 20]	Papp A→B at 2 h, 200 μM [2, 21] [×10⁻⁶ cm/s]	Papp B→A at 2 h, 200 μM [2, 22] [×10⁻⁶ cm/s]	increase of protein level of MRP1 [4]	also measured
O=C(O[C@@H]1Cc2c(O)cc(O)cc2O[C@@H]1c1cc(O)c(=O)c2c(O)c(O)cc([C@H]3Oc4cc(O)cc(O)c4C[C@H]3O)c2c1)c1cc(O)c(O)c(O)c1 [TF3G, theaflavin-3-gallate]	446 ± 30.1	508 ± 15.9	585 ± 78.7	454 ± 13.2	641 ± 7.8	44.2	47.6	1.58 ± 0.3	0.107 ± 0.004	0.168 ± 0.03	1.41 ± 0.27	0.109 ± 0.004	0.153 ± 0.027	1.13 ± 0.22	0.13 ± 0.005	0.146 ± 0.026	0.86 ± 0.16	0.203 ± 0.008	0.173 ± 0.031	58.36%	fold increase in the influx ([3]; absorptive transport, with verapamil vs control, 2 h): 1.90 fold; transport amount, absorptive transport (peak) ([3]; apical to basolateral, 200 μM, at 3 h): 1.30 ± 0.08 nmol; transport amount, secretory transport (peak) ([3]; basolateral to apical, 200 μM, at 3 h): 3.59 ± 0.36 nmol; increase of protein level of BCRP [5]: 115.78%; conjugated metabolites (glucuronidated, sulfated and methylated) [6]: not detected; metabolites identified [6]: GA and TF; degraded due to the structural instability [7]: 24.6%
O=C(O[C@@H]1Cc2c(O)cc(O)cc2O[C@@H]1c1cc(O)c(=O)c2c(O)c(O)cc([C@H]3Oc4cc(O)cc(O)c4C[C@H]3OC(=O)c3cc(O)c(O)c(O)c3)c2c1)c1cc(O)c(O)c(O)c1 [TFDG, theaflavin-3, 3’-digallate]	702 ± 69.4	580 ± 83.9	373 ± 38.8	509 ± 40.6	580 ± 34.7	32.7	24.7	1.57 ± 0.08	0.364 ± 0.034	0.569 ± 0.049	1.47 ± 0.08	0.375 ± 0.035	0.552 ± 0.048	1.58 ± 0.09	0.4 ± 0.037	0.632 ± 0.055	1.53 ± 0.08	0.357 ± 0.033	0.546 ± 0.047	increased	efflux ratio at 2 h, 200 μM ([2]; Caco-2, with 100 μM MK-571 (MRP1, MRP2, MRP3 inhibitor), + 100 μM MK-571 (MRP1, MRP2, MRP3 inhibitor)): 1.35 ± 0.07; Papp A→B at 2 h, 200 μM ([2]; Caco-2, with 100 μM MK-571 (MRP1, MRP2, MRP3 inhibitor), absorptive transport, + 100 μM MK-571 (MRP1, MRP2, MRP3 inhibitor)): 0.389 ± 0.036 ×10⁻⁶ cm/s; Papp B→A at 2 h, 200 μM ([2]; Caco-2, with 100 μM MK-571 (MRP1, MRP2, MRP3 inhibitor), secretory transport, + 100 μM MK-571 (MRP1, MRP2, MRP3 inhibitor)): 0.524 ± 0.046 ×10⁻⁶ cm/s; transport amount, absorption peak ([3]; apical to basolateral, 200 μM, at 2 h): 2.44 ± 0.23 nmol; transport amount, secretion peak ([3]; basolateral to apical, 200 μM, at 2 h): 3.83 ± 0.33 nmol; increase of protein level of BCRP [5]: increased; conjugated metabolites (glucuronidated, sulfated and methylated) [6]: not detected; metabolites identified [6]: GA, TF, TF3G, and TF3’G
